Reference: PubChem BioAssay (NCI)
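96-well plates; 48 h exposure; 5 concentrations. Endpoints by linear interpolation between flanking doses. Not reached: highest tested concentration assigned. At the GI50, growth is halved. The concentration for full growth arrest is given as TGI.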

Legend:
Assay in all cases: inhibition of tumour cell growth, NCI panel, 48 h
HCT-116 colon = system: HCT-116 colon
SF-268 CNS = system: SF-268 CNS
KM12 colon = system: KM12 colon
MOLT-4 leukemia = system: MOLT-4 leukemia
MALME-3M melanoma = system: MALME-3M melanoma
UO-31 renal = system: UO-31 renal
NCI-H23 lung = system: NCI-H23 lung
T-47D breast = system: T-47D breast
SN12C renal = system: SN12C renal
SK-MEL-5 melanoma = system: SK-MEL-5 melanoma
OVCAR-4 ovarian = system: OVCAR-4 ovarian
NCI-H460 lung = system: NCI-H460 lung
MDA-MB-435 = system: MDA-MB-435
PC-3 prostate = system: PC-3 prostate
NCI-H226 lung = system: NCI-H226 lung
IGROV1 ovarian = system: IGROV1 ovarian
K-562 leukemia = system: K-562 leukemia
SF-539 CNS = system: SF-539 CNS
A498 renal = system: A498 renal
SF-295 CNS = system: SF-295 CNS
BT-549 breast = system: BT-549 breast
UACC-62 melanoma = system: UACC-62 melanoma
OVCAR-8 ovarian = system: OVCAR-8 ovarian
HOP-92 NSCLC = system: HOP-92 NSCLC
CCRF-CEM leukemia = system: CCRF-CEM leukemia
SNB-19 CNS = system: SNB-19 CNS
NCI/ADR-RES ovarian = system: NCI/ADR-RES ovarian
A549 NSCLC = system: A549 NSCLC
786-0 renal = system: 786-0 renal
OVCAR-5 ovarian = system: OVCAR-5 ovarian
HT29 colon = system: HT29 colon
TK-10 renal = system: TK-10 renal
SW-620 colon = system: SW-620 colon
DU-145 prostate = system: DU-145 prostate
LOX IMVI melanoma = system: LOX IMVI melanoma
SK-OV-3 ovarian = system: SK-OV-3 ovarian
SK-MEL-2 melanoma = system: SK-MEL-2 melanoma
MDA-MB-231 breast = system: MDA-MB-231 breast
COLO 205 colon = system: COLO 205 colon
SNB-75 CNS = system: SNB-75 CNS
HOP-62 NSCLC = system: HOP-62 NSCLC
SR leukemia = system: SR leukemia
EKVX NSCLC = system: EKVX NSCLC
HS 578T breast = system: HS 578T breast
U251 CNS = system: U251 CNS
MCF7 breast = system: MCF7 breast
RPMI-8226 leukemia = system: RPMI-8226 leukemia
M14 melanoma = system: M14 melanoma
OVCAR-3 ovarian = system: OVCAR-3 ovarian
HCT-15 colon = system: HCT-15 colon
ACHN renal = system: ACHN renal
SK-MEL-28 melanoma = system: SK-MEL-28 melanoma
RXF 393 renal = system: RXF 393 renal
NCI-H522 lung = system: NCI-H522 lung
HCC-2998 colon = system: HCC-2998 colon
CAKI-1 renal = system: CAKI-1 renal
UACC-257 melanoma = system: UACC-257 melanoma

Cc1ccc(NC(=O)Nc2nc3ccc([N+](=O)[O-])cc3s2)cc1 was tested, and the GI50 (HCT-116 colon) was 1.79 µM, the TGI (HCT-116 colon) was 5.22 µM and the GI50 (SF-268 CNS) was 3.52 µM. It also gave a TGI (SF-268 CNS) of 16 µM, a GI50 (KM12 colon) of 2.45 µM and a TGI (KM12 colon) of 8.15 µM. It also gave a GI50 (MOLT-4 leukemia) of 2.09 µM, a TGI (MOLT-4 leukemia) of 6.33 µM and a GI50 (MALME-3M melanoma) of 2.66 µM. The TGI (MALME-3M melanoma) was 7.71 µM, the GI50 (UO-31 renal) was 2.51 µM and the TGI (UO-31 renal) was 10.5 µM. The GI50 (NCI-H23 lung) was 1.89 µM, the TGI (NCI-H23 lung) was 6.78 µM and the GI50 (T-47D breast) was 0.799 µM. The TGI (T-47D breast) was 6.4 µM, the GI50 (SN12C renal) was 2.54 µM and the TGI (SN12C renal) was 12.5 µM. For the same compound, the GI50 (SK-MEL-5 melanoma) was 1.42 µM, the TGI (SK-MEL-5 melanoma) was 3.51 µM and the GI50 (OVCAR-4 ovarian) was 1.41 µM. The TGI (OVCAR-4 ovarian) was 9.32 µM, the GI50 (NCI-H460 lung) was 2.84 µM and the TGI (NCI-H460 lung) was 10.4 µM. For the same compound, the GI50 (MDA-MB-435) was 2.32 µM, the TGI (MDA-MB-435) was 9.33 µM and the GI50 (PC-3 prostate) was 2.14 µM. The TGI (PC-3 prostate) was 8.83 µM, the GI50 (NCI-H226 lung) was 2.75 µM and the TGI (NCI-H226 lung) was 12.3 µM. For the same compound, the GI50 (IGROV1 ovarian) was 3.59 µM, the TGI (IGROV1 ovarian) was 14.3 µM and the GI50 (K-562 leukemia) was 1.44 µM. For the same compound, the TGI (K-562 leukemia) was 9.56 µM, the GI50 (SF-539 CNS) was 3.15 µM and the TGI (SF-539 CNS) was 10.4 µM. The GI50 (A498 renal) was 1.41 µM, the TGI (A498 renal) was 4.38 µM and the GI50 (SF-295 CNS) was 1.92 µM. For the same compound, the TGI (SF-295 CNS) was 5.21 µM, the GI50 (BT-549 breast) was 2.02 µM and the TGI (BT-549 breast) was 5.88 µM. The GI50 (UACC-62 melanoma) was 2.77 µM, the TGI (UACC-62 melanoma) was 13.7 µM and the GI50 (OVCAR-8 ovarian) was 3.2 µM. The TGI (OVCAR-8 ovarian) was 14 µM, the GI50 (HOP-92 NSCLC) was 1.37 µM and the TGI (HOP-92 NSCLC) was 5.44 µM. The GI50 (CCRF-CEM leukemia) was 2.13 µM, the TGI (CCRF-CEM leukemia) was 7.71 µM and the GI50 (SNB-19 CNS) was 2.7 µM. The TGI (SNB-19 CNS) was 13.4 µM, the GI50 (NCI/ADR-RES ovarian) was 2.5 µM and the TGI (NCI/ADR-RES ovarian) was 7.79 µM. The GI50 (A549 NSCLC) was 2.79 µM, the TGI (A549 NSCLC) was 10.5 µM and the GI50 (786-0 renal) was 2.89 µM. It also gave a TGI (786-0 renal) of 12.4 µM, a GI50 (OVCAR-5 ovarian) of 4.32 µM and a TGI (OVCAR-5 ovarian) of 18.3 µM. The GI50 (HT29 colon) was 3.28 µM, the TGI (HT29 colon) was 11.6 µM and the GI50 (TK-10 renal) was 2.94 µM. The TGI (TK-10 renal) was 11.6 µM, the GI50 (SW-620 colon) was 2.93 µM and the TGI (SW-620 colon) was 10.7 µM. The GI50 (DU-145 prostate) was 3.26 µM, the TGI (DU-145 prostate) was 11.7 µM and the GI50 (LOX IMVI melanoma) was 2.36 µM. For the same compound, the TGI (LOX IMVI melanoma) was 5.96 µM, the GI50 (SK-OV-3 ovarian) was 2.91 µM and the TGI (SK-OV-3 ovarian) was 10.1 µM. For the same compound, the GI50 (SK-MEL-2 melanoma) was 2.19 µM, the TGI (SK-MEL-2 melanoma) was 6.03 µM and the GI50 (MDA-MB-231 breast) was 3.04 µM. For the same compound, the TGI (MDA-MB-231 breast) was 10.3 µM, the GI50 (COLO 205 colon) was 1.91 µM and the TGI (COLO 205 colon) was 3.84 µM. It also gave a GI50 (SNB-75 CNS) of 1.95 µM, a TGI (SNB-75 CNS) of 6.27 µM and a GI50 (HOP-62 NSCLC) of 3.1 µM. For the same compound, the TGI (HOP-62 NSCLC) was 10.7 µM, the GI50 (SR leukemia) was 1.29 µM and the TGI (SR leukemia) was 5.06 µM. For the same compound, the GI50 (EKVX NSCLC) was 2.75 µM, the TGI (EKVX NSCLC) was 10.9 µM and the GI50 (HS 578T breast) was 3.02 µM. The TGI (HS 578T breast) was 13.9 µM, the GI50 (U251 CNS) was 2.34 µM and the TGI (U251 CNS) was 10.9 µM. It also gave a GI50 (MCF7 breast) of 1.99 µM, a TGI (MCF7 breast) of 7.77 µM and a GI50 (RPMI-8226 leukemia) of 1.26 µM. It also gave a TGI (RPMI-8226 leukemia) of 3.77 µM, a GI50 (M14 melanoma) of 2.92 µM and a TGI (M14 melanoma) of 10.6 µM. It also gave a GI50 (OVCAR-3 ovarian) of 2.43 µM, a TGI (OVCAR-3 ovarian) of 9.63 µM and a GI50 (HCT-15 colon) of 2.37 µM. It also gave a TGI (HCT-15 colon) of 9.19 µM, a GI50 (ACHN renal) of 2.78 µM and a TGI (ACHN renal) of 11.4 µM. The GI50 (SK-MEL-28 melanoma) was 3.1 µM, the TGI (SK-MEL-28 melanoma) was 15.1 µM and the GI50 (RXF 393 renal) was 2.01 µM. The TGI (RXF 393 renal) was 5.75 µM, the GI50 (NCI-H522 lung) was 1.14 µM and the TGI (NCI-H522 lung) was 5.21 µM. For the same compound, the GI50 (HCC-2998 colon) was 2.6 µM, the TGI (HCC-2998 colon) was 10.1 µM and the GI50 (CAKI-1 renal) was 1.79 µM. For the same compound, the TGI (CAKI-1 renal) was 6.23 µM, the GI50 (UACC-257 melanoma) was 1.82 µM and the TGI (UACC-257 melanoma) was 6.78 µM.
